Consider two compounds from patent US11597724B2, “Herbicidally active 3-phenylisoxazoline-5-carboxamides of tetrahydro and dihydrofuran carboxylic acids and esters” (Bayer Aktiengesellschaft, priority 2017, dated 2023).

What all share (type): in vivo
Test [1] concerns Stellaria media. As to the kind of experiment: Post-emergence herbicidal activity against STEME. The conditions noted are these: Stellaria media, 504 h, dosage 320 g/ha, rated about 3 weeks after treatment. Here is the method: (§1) STEME: Stellaria media VERPE: Veronica persica 2. Post-Emergence Herbicidal Action and Crop Plant Compatibility Seeds of monocotyledonous and dicotyledonous weeds and crop plants are placed in sandy loam in plastic or wood-fiber pots, covered with soil and cultivated in a greenhouse under controlled growth conditions. 2 to 3 weeks after sowing, the test plants are treated at the one-leaf stage. The compounds of the invention, formulated in the form of wettable powders (WP) or as emulsion concentrates (EC), are then sprayed onto the green parts of the plants as aqueous suspension or emulsion with addition of 0.5% additive at a water application rate of 600 l/ha (converted). After the test plants had been kept in the greenhouse under optimum growth conditions for about 3 weeks, the activity of the preparations is rated visually in comparison to untreated controls. For example, 100% activity=the plants have died, 0% activity=like control plants.

The subject of the next test is Avena fatua. As to the kind of experiment: Post-emergence herbicidal activity against AVEFA. The conditions noted are these: Avena fatua, 504 h, dosage 320 g/ha, rated about 3 weeks after treatment. The protocol: as §1, with “AMARE: Amaranthus retroflexus AVEFA: Avena fatua” for “STEME: Stellaria media VERPE: Veronica persica”
For test [2], the system named is Veronica persica. Kind of test: Pre-emergence herbicidal activity against VERPE. To be noted: Veronica persica, 504 h, dosage 80 g/ha. The text has this:
(§2) 1. Pre-Emergence Herbicidal Action and Crop Plant Compatibility Seeds of monocotyledonous and dicotyledonous weed plants and crop plants are placed in plastic or wood fiber pots and covered with soil. The compounds of the invention, formulated in the form of wettable powders (WP) or as emulsion concentrates (EC), are then applied onto the surface of the covering soil as aqueous suspension or emulsion with addition of 0.5% additive at a water application rate of 600 l/ha (converted). After the treatment, the pots are placed in a greenhouse and kept under good growth conditions for the trial plants. After about 3 weeks, the effect of the preparations is scored visually in comparison with untreated controls as percentages. For example, 100% activity=the plants have died, 0% activity=like control plants. STEME: Stellaria media VERPE: Veronica persica

The next test has as its system Alopecurus myosuroides. Kind of test: Post-emergence herbicidal activity against ALOMY. The conditions noted are these: Alopecurus myosuroides, 504 h, dosage 320 g/ha, rated about 3 weeks after treatment. The protocol:
as §1, with “ABUTH: Abutilon theophrasti ALOMY: Alopecurus myosuroides” for “STEME: Stellaria media VERPE: Veronica persica”

The subject of test [3] is Stellaria media. Kind of test: Pre-emergence herbicidal activity against STEME. The conditions noted are these: Stellaria media, 504 h, dosage 80 g/ha.
From the text: as §2

Test [4] is described as follows: Post-emergence treatment, summary over harmful plants. To be noted: 504 h, application rate of 0.32 kg of active substance or less per hectare, read-out: herbicidal action, post-emergence treatment (very good herbicidal activity). Here is the method: 2. Post-Emergence Herbicidal Action and Crop Plant Compatibility
as §1, with “Seeds” for “STEME: Stellaria media VERPE: Veronica persica 2. Post-Emergence Herbicidal Action and Crop Plant Compatibility Seeds”
As shown by the results, compounds according to the invention such as, for example, the compounds No. I-35 and other compounds from the tables (for example I-28, I-38, I-01, I-19, I-36, I-29, I-32, I-11, I-12, I-37, I-06, I-09, I-33, I-34, I-13, I-04, I-26, I-21, I-30, I-05, I-03, I-20, I-27, I-14, I-10, I-23, I-07, I-25, I-02, I-08, I-24, I-41, I-42, I-43, I-44, I-46, I-49, I-54, I-55, I-56) have, when used for post-emergence treatment, very good herbicidal activity (80% to 100% herbicidal action) against harmful plants such as Abutilon theophrasti, Alopecurus myosuroides, Amaranthus retroflexus, Avena fatua, Echinochloa crus-galli, Hordeum murinum, Lolium rigidum, Pharbitis purpurea, Polygonum convolvulus, Setaria viridis, Stellaria media, Veronica persica and Viola tricolor at an application rate of 0.32 kg of active substance or less per hectare.

The next test has as its system Pharbitis purpurea. Kind of test: Post-emergence herbicidal activity against PHBPU. To be noted: Ipomoea purpurea, 504 h, dosage 320 g/ha, rated about 3 weeks after treatment. The protocol:
as §1, with “LOLRI: Lolium rigidum PHBPU: Pharbitis purpurea” for “STEME: Stellaria media VERPE: Veronica persica”

The next test relates to Polygonum convolvulus. Kind of test: Post-emergence herbicidal activity against POLCO. To be noted: Fallopia convolvulus, 504 h, dosage 320 g/ha, rated about 3 weeks after treatment. The protocol: as §1, with “POLCO: Polygonum convolvulus SETVI: Setaria viridis” for “STEME: Stellaria media VERPE: Veronica persica”
Another test has as its system Abutilon theophrasti. As to the kind of experiment: Post-emergence herbicidal activity against ABUTH. To be noted: Abutilon theophrasti, 504 h, dosage 320 g/ha, rated about 3 weeks after treatment. Here is the method:
as §1, with “ABUTH: Abutilon theophrasti ALOMY: Alopecurus myosuroides” for “STEME: Stellaria media VERPE: Veronica persica”

The test system of test [5] is Veronica persica. As to the kind of experiment: Post-emergence herbicidal activity against VERPE. The conditions noted are these: Veronica persica, 504 h, dosage 320 g/ha. The protocol: as §1
In the next test the test system is Hordeum murinum. As to the kind of experiment: Post-emergence herbicidal activity against HORMU. The conditions noted are these: Hordeum murinum, 504 h, dosage 320 g/ha. The protocol:
as §1, with “ECHCG: Echinochloa crus-galli HORMU: Hordeum murinum” for “STEME: Stellaria media VERPE: Veronica persica”

The next test has as its system Lolium rigidum. Kind of test: Post-emergence herbicidal activity against LOLRI. The conditions noted are these: Lolium rigidum, 504 h, dosage 320 g/ha, rated about 3 weeks after treatment. Here is the method:
as §1, with “LOLRI: Lolium rigidum PHBPU: Pharbitis purpurea” for “STEME: Stellaria media VERPE: Veronica persica”

Another test has as its system Amaranthus retroflexus. As to the kind of experiment: Pre-emergence herbicidal activity against AMARE. To be noted: Amaranthus retroflexus, 504 h, dosage 80 g/ha.
From the text: as §2, with “AMARE: Amaranthus retroflexus AVEFA: Avena fatua” for “STEME: Stellaria media VERPE: Veronica persica”

With `COC(=O)C1=C(NC(=O)C2(C)CC(c3cc(F)cc(F)c3)=NO2)COC1` (stereo not shown) [I-25, methyl 4-[[3-(3,5-difluorophenyl)-5-methyl-4H-isoxazole-5-carbonyl]amino]-2,5-dihydrofuran-3-carboxylate], the pest or weed control at 320 g/ha was 90% in the test with Stellaria media [1]; 100% with Avena fatua; 100% in the test on Alopecurus myosuroides; 80 to 100% in test [4]; 80% in the test on Pharbitis purpurea; 90% in the test on Polygonum convolvulus. Besides, the pest or weed control at 320 g/ha in the test on Abutilon theophrasti and with Veronica persica [5] was 80% in each case. The pest or weed control at 80 g/ha in the test on Veronica persica [2] and with Stellaria media [3] was 100% throughout.
As to `CCOC(=O)C1=C(NC(=O)C2(C)CC(c3cc(F)cc(F)c3)=NO2)COC1` (stereo not shown) [I-24, ethyl 4-[[3-(3,5-difluorophenyl)-5-methyl-4H-isoxazole-5-carbonyl]amino]-2,5-dihydrofuran-3-carboxylate], the pest or weed control at 320 g/ha with Hordeum murinum is 90%; in the test on Avena fatua, 90%; in the test with Alopecurus myosuroides it was 90%; in test [4] it was 80 to 100%; with Lolium rigidum, 90%; in the test on Pharbitis purpurea it was 80%. This compound also came in with a pest or weed control at 320 g/ha in the test on Polygonum convolvulus of 90%. Moreover, the pest or weed control at 80 g/ha with Veronica persica [2] came to 100%; in the test with Amaranthus retroflexus, 80%.
